Assay results reported in patent US10377770B2 (Novartis AG, priority 2015, dated 2019).

biological target: C-Raf FL (full length CRAF with Y340E and Y341E activating mutations, co-expressed with h14-3-3 zeta) (Homo sapiens (Human), UniProt P04049, Y340E/Y341E); test: In vitro Raf activity determination, AlphaScreen p-MEK readout, c-Raf (C-Raf FL); type: biochemical; conditions: c-Raf approximately 4 nM, ATP 1 μM, pre-incubation 60 minutes, reaction 1 hour
Text: Sf9 cells co-expressing both proteins were lysed and subjected to immobilized nickel chromatography and eluted with Imidazole. A second column (StrepII binding column) was used and eluted with desthiobiotin. Protein Tags were removed using Prescission enzyme and the protein was further purified using a flowthrough step to remove tags.
C-Raf TR refers to a truncated C-Raf protein, a Δ1-324 deletion mutant. C-Raf FL refers to the full-length C-Raf protein.
Full length MEK1 with an inactivating K97R ATP binding site mutation is utilized as a RAF substrate. The MEK1 cDNA was subcloned with an N-terminal (his)6 tag into a vector for E. Coli expression. The MEK1 substrate was purified from E. Coli lysate by nickel affinity chromatography followed by anion exchange. The final MEK1 preparation was biotinylated (Pierce EZ-Link Sulfo-NHS-LC-Biotin) and concentrated.
Assay Materials: Assay buffer is 50 mM Tris, pH 7.5, 15 mM MgCl2, 0.01% Bovine Serum Albumin (BSA) and 1 mM dithiothreitol (DTT); Stop buffer is 60 mM ethylenediaminetetraacetic acid (EDTA) and 0.01% Tween® 20; b-Raf (V600E), active; biotinylated Mek, kinase dead; Alpha Screen detection kit (available from PerkinElmer™, #6760617R); Anti phospho-MEK1/2 (available from Cell Signaling Technology, Inc. #9121); 384 well low volume assay plates (White Greiner® plates).
Assay conditions: b-Raf (V600E) approximately 4 pM; c-Raf approximately 4 nM; biotinylated Mek, kinase dead approximately 10 nM; ATP 10 μM for BRAF (V600E) and 1 μM for CRAF; Pre-incubation time with compounds 60 minutes at room temperature; Reaction time 1 or 3 hours at room temperature.
Assay protocol: Raf and biotinylated Mek (kinase dead) were combined at 2× final concentrations in assay buffer (50 mM Tris, pH 7.5, 15 mM MgCl2, 0.01% BSA and 1 mM DTT) and dispensed […] per well in assay plates (Greiner white 384 well assay plates #781207) containing […] of 40× of a Raf kinase inhibitor test compound diluted in 100% DMSO. The plate was incubated for 60 minutes at room temperature. The Raf kinase activity reaction was started by the addition of […] per well of 2×ATP diluted in assay buffer. After 3 hours (b-Raf(V600E)) or 1 hour (c-Raf). The reactions were stopped and the phosphorylated product was measured using a rabbit anti-p-MEK (Cell Signaling, #9121) antibody and the Alpha Screen IgG (ProteinA) detection Kit (PerkinElmer #6760617R), by the addition of […] to the well of a mixture of the antibody (1:2000 dilution) and detection beads (1:2000 dilution of both beads) in Stop/bead buffer (25 mM EDTA, 50 mM Tris, pH 7.5, 0.01% Tween20). The additions were carried out under dark conditions to protect the detection beads from light. A lid was placed on top of the plate and incubated for 1 hour at room temperature, after which the luminescence was read on a PerkinElmer Envision instrument.

C-Raf FL (full length CRAF with Y340E and Y341E activating mutations, co-expressed with h14-3-3 zeta), sequence (P04049 whole entry Y340E/Y341E): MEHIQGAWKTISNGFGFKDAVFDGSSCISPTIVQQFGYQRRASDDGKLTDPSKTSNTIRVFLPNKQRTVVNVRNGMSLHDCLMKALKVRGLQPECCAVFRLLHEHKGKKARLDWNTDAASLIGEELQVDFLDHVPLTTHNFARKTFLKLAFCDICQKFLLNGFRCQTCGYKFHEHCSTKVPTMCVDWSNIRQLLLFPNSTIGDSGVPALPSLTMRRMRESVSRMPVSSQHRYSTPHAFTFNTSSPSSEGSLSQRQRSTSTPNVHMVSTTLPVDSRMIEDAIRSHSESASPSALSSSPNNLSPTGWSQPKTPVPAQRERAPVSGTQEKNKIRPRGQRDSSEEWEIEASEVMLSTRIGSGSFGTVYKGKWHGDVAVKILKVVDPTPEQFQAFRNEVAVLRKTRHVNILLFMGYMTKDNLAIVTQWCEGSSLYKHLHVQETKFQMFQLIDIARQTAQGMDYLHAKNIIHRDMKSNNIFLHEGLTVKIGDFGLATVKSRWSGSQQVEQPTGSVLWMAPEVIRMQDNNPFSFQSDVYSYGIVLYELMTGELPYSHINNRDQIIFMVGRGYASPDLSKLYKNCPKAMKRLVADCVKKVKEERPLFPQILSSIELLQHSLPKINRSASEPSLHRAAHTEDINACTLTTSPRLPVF
C-Raf FL (full length CRAF with Y340E and Y341E activating mutations, co-expressed with h14-3-3 zeta), sequence (P63104 whole entry partner): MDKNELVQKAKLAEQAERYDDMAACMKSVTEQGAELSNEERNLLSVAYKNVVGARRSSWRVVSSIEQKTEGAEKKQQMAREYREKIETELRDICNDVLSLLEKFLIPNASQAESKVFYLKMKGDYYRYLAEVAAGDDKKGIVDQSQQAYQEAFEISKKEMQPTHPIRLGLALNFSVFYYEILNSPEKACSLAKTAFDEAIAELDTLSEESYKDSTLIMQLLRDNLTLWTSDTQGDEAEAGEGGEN

SMILES | IC50
CCN1C(=O)OC2COCCC2c2cc(-c3cc(NC(=O)c4cccc(C(F)(F)F)c4)cnc3C)cnc21 [Example 296, N-(5-((4aS,11bR- cis)-7-ethyl-6-oxo-2,4,4a,6,7,11b-hexahydro-1H-pyrano[4,3-f]pyrido[2,3-d][1,3]oxazepin-10-yl)-6-methylpyridin-3-yl)-3-(trifluoromethyl) benzamide] | 1.8 nM
Cc1ccc(NC(=O)c2ccnc(C(C)(C)F)c2)cc1-c1cc(F)c2c(c1)N1CCOC[C@@H]1[C@](F)(CO)C2 [Example 438, N-(3-((4aR,5S)-5,7-difluoro-5-(hydroxymethyl)-1,2,4,4a,5,6-hexahydro-[1,4]oxazino[4,3-a]quinolin-9-yl)-4-methylphenyl)-2-(2-fluoropropan-2-yl)isonicotinamide] | 0.8 nM
CCN1C(=O)C2COCCN2c2cc(-c3cc(NC(=O)c4ccnc(C(F)(F)F)c4)ccc3C)nnc21 (racemic) [Example 132, rac-N-(3-(5-Ethyl-6-oxo-5,6,6a,7,9,10-hexahydropyridazino[3′,4′:5,6]pyrazino[2,1-c][1,4]oxazin-2-yl)-4-methylphenyl)-2-(trifluoromethyl)isonicotinamide] | 0.14 nM
Cc1ccc(NC(=O)c2cncc(C(F)(F)F)c2)cc1-c1cc2c(cc1F)C[C@@](F)(CO)[C@H]1COCCN21 [Example 489, N-(3-((4aR,5S)-5,8-difluoro-5-(hydroxymethyl)-1,2,4,4a,5,6-hexahydro-[1,4]oxazino[4,3-a]quinolin-9-yl)-4-methylphenyl)-5-(trifluoromethyl) nicotinamide] | 0.4 nM
Cc1ncc(NC(=O)c2ccnc(C(F)(F)F)c2)cc1-c1ccc2c(c1)N1CCOCC[C@H]1C[C@@H]2O [Example 443, N-(5-((5aS,7S)-7-hydroxy-1,2,5,5a,6,7-hexahydro-4H-[1,4]oxazepino [4,5-a]quinolin-10-yl)-6-methylpyridin-3-yl)-2-(trifluoromethyl) isonicotinamide] | 0.6 nM
Cc1ncc(NC(=O)c2cccc(C(F)(F)F)c2)cc1-c1cnc2c(c1)N1CCOC[C@H]1C[C@]2(C)O (racemic) [Example 44, (rac)-(cis)-N-(5-(6-hydroxy-6-methyl-1,2,4,4a,5,6-hexahydro-[1,4]oxazino[4,3-a][1,5]naphthyridin-9-yl)-6-methylpyridin-3-yl)-3-(trifluoromethyl)benzamide] | 0.037 nM
CNC(=O)C1Cc2ccc(-c3cc(NC(=O)c4ccnc(C(C)(F)F)c4)ccc3C)cc2N2CCOCC12 (racemic) [Example 67, (rac)-9-(5-(2-(1,1-difluoroethyl)isonicotinamido)-2-methylphenyl)-N-methyl-1,2,4,4a,5,6-hexahydro-[1,4]oxazino[4,3-a]quinoline-5-carboxamide] | 0.13 nM
Cc1ccc(NC(=O)c2cncc(C(F)(F)F)c2)cc1-c1cc2c(cc1F)C[C@](F)(CO)[C@@H]1COCCN21 [Example 487, N-(3-((4aS,5R)-5,8-difluoro-5-(hydroxymethyl)-1,2,4,4a,5,6-hexahydro-[1,4]oxazino[4,3-a]quinolin-9-yl)-4-methylphenyl)-5-(trifluoromethyl) nicotinamide] | 0.7 nM
Cc1ncc(NC(=O)c2cccc(C(F)(F)F)c2)cc1-c1cnc2c(c1)N1CCOC[C@H]1[C@H](CO)C2 [Example 120, N-(5-((4aR,5R)-5-(Hydroxymethyl)-1,2,4,4a,5,6-hexahydro-[1,4]oxazino[4,3-a][1,5]naphthyridin-9-yl)-6-methylpyridin-3-yl)-3-(trifluoromethyl)benzamide] | 0.011 nM
Cc1ccc(NC(=O)c2ccnc(C(F)(F)F)c2)cc1-c1cc2c(cc1F)C[C@@](F)(CO)[C@@H]1COCCN21 [Example 485, N-(3-((4aS,5S)-5,8-difluoro-5-(hydroxymethyl)-1,2,4,4a,5,6-hexahydro-[1,4]oxazino[4,3-a]quinolin-9-yl)-4-methylphenyl)-2-(trifluoromethyl) isonicotinamide] | 0.3 nM
Cc1ccc(NC(=O)c2ccnc(C(C)(C)F)c2)cc1-c1cc(F)c2c(c1)N1CCOC[C@H]1[C@](F)(CO)C2 [Example 422, N-(3-((4aS,5S)-5,7-difluoro-5-(hydroxymethyl)-1,2,4,4a,5,6-hexahydro-[1,4]oxazino[4,3-a]quinolin-9-yl)-4-methylphenyl)-2-(2-fluoropropan-2-yl)isonicotinamide] | 1 nM
Cc1ccc(NC(=O)c2cnnc(C(F)(F)F)c2)cc1-c1ccc2c(c1)N1CCOC[C@@H]1[C@](F)(CO)C2 [Example 403, N-(3-((4aR,5S)-5-fluoro-5-(hydroxymethyl)-1,2,4,4a,5,6-hexahydro-[1,4]oxazino[4,3-a]quinolin-9-yl)-4-methylphenyl)-6-(trifluoromethyl)pyridazine-4-carboxamide] | 0.1 nM
CCN1C(=O)C2COCC[C@@]2(C)c2cc(-c3cc(NC(=O)c4cncc(C(F)(F)F)c4)ccc3C)cnc21 (stereo in doubt) [Example 346, N-(3-((4a,10b-trans)-6-ethyl-10b-methyl-5-oxo-1,4,4a,5,6,10b-hexahydro-2H-pyrano[3,4-c][1,8]naphthyridin-9-yl)-4-methylphenyl)-5-(trifluoromethyl)nicotinamide] | 0.1 nM
Cc1ccc(NC(=O)c2ccnc(C(F)(F)F)c2F)cc1-c1cnc2c(c1)[C@@H]1CCOC[C@H]1C(=O)N2CCO [Example 307, 3-fluoro-N-(3 - ((4aS, 10bR)-6-(2-hydroxyethyl)-5-oxo-2,4,4a,5,6,10b-hexahydro-1H-pyrano[3,4-c][1,8]naphthyridin-9-yl)-4-methylphenyl)-2-(trifluoromethyl) isonicotinamide] | 0.1 nM
CCN1C(=O)N2COCCC2(C)c2cc(-c3cc(NC(=O)c4ccnc(C(F)(F)F)c4)ccc3C)ccc21 (centres unmarked) [Example 242, N-(3-(7-ethyl-11b-methyl-6-oxo-1,2,4,6,7,11b-hexahydro-[1,3]oxazino[3,4-c]quinazolin-10-yl)-4-methylphenyl)-2-(trifluoromethyl) isonicotinamide] | 0.3 nM
Cc1ccc(NC(=O)c2ccnc(C(C)(F)F)c2)cc1-c1ccc2c(c1)N1CCOC[C@@H]1[C@@](F)(CO)C2 [Example 81, 2-(1,1-difluoroethyl)-N-(3-((4aR,5R)-5-fluoro-5-(hydroxymethyl)-1,2,4,4a,5,6-hexahydro-[1,4]oxazino[4,3-a]quinolin-9-yl)-4-methylphenyl)isonicotinamide] | 0.081 nM
Cc1ncc(NC(=O)c2cccc(C(F)(F)F)c2)cc1-c1cnc2c(c1)N1CCOC[C@H]1C[C@@]2(C)O (racemic) [Example 43, (rac)-(trans)-N-(5-(6-hydroxy-6-methyl-1,2,4,4a,5,6-hexahydro-[1,4]oxazino[4,3-a][1,5]naphthyridin-9-yl)-6-methylpyridin-3-yl)-3-(trifluoromethyl)benzamide] | 0.0082 nM
Cc1ncc(NC(=O)c2cccc(C(F)(F)F)c2)cc1-c1ccc2c(c1)N1CCOC[C@H]1[C@](CO)(CF)C2 [Example 409, N-(5-((4aR,5R)-5-(fluoromethyl)-5-(hydroxymethyl)-1,2,4,4a,5,6-hexahydro-[1,4]oxazino[4,3-a]quinolin-9-yl)-6-methylpyridin-3-yl)-3-(trifluoromethyl)benzamide] | 0.4 nM
Cc1ncc(NC(=O)c2ccnc(C(C)(F)F)c2)cc1-c1ccc2c(c1)N1CCOC[C@H]1[C@H](C#N)C2 (racemic) [Example 91, (rac)-N-(5-(5-cyano-1,2,4,4a,5,6-hexahydro-[1,4]oxazino[4,3-a]quinolin-9-yl)-6-methylpyridin-3-yl)-2-(1,1-difluoroethyl)isonicotinamide] | 0.076 nM
CCN1C(=O)C[C@@H]2COCCN2c2cc(-c3cc(NC(=O)c4cnnc(C(F)(F)F)c4)ccc3C)cnc21 [Example 325, (R)-N-(3-(7-ethyl-6-oxo-2,4,4a,5,6,7-hexahydro-1H-[1,4]oxazino[4,3-d]pyrido[2,3-b][1,4]diazepin-10-yl)-4-methylphenyl)-6-(trifluoromethyl) pyridazine-4-carboxamide] | 0.1 nM
